Experimental data from US4847253A, “Antiparkinson ergoline derivatives” (Farmitalia Carlo Erba, priority 1987, dated 1989).
“Also recorded” adds a separate entry of the source.

Legend:
[1] = system: Reserpine-Treated Mice; experiment: Locomotor activity in reserpine-treated mice; format: in vivo, Male mice, Crl:CD-1 (ICR) BR strain; conditions: for No. of counts in 85 min.: reserpine 5 mg/kg i.p. pretreated; for locomotor activity in akinetic reserpinized mice: result in words, FCE 23884 at 1 mg/kg s.c.
Protocol: Male mice, (22-25 g) of the Crl:CD^R -1 (ICR) BR strain, were used. Injection volume for drugs was 0.5 ml/100 g body weight. Locomotor activity in mice was examined from 5 up to 90 min. by use of two "Columbus activity Meters" placing 5 animals per cage after each treatment. Comparison was made with reserpine treated animals (5 mg/kg i.p.) receiving saline (controls).
Groups of five mice were used each time. Eighteen hours reserpine pretreated mice were subcataneously injected with the test compound or apomorphine or saline.
Five minutes later, the animals were tested for locomotor activity according D. Hinzen et al., European Journal of Pharmacology 131 (1986) 75-86.

[2] = system: 6-OHDA lesioned rats; experiment: Contralateral turning behavior in 6-OHDA lesioned rats; format: in vivo, Male (ICR) Wistar rats; conditions: scored for six hours
Protocol: The profile of dopamine agonists of the compound of the formula I was preliminary discovered by an induction of contralateral turning in rats with unilateral 6-hydroxy dopamine-induced lesions of the dopaminergic nigrostriatal pathway (according to the principles of U. Ungerstedt et al., Brain Research 24 (1970); p. 485).
Male (ICR) Wistar rats (290-310 g) anaesthetized i.p. with 50 mg/kg pentobarbital sodium were placed in a Stoelting stereotaxis frame and unilaterally injected with 6-hydroxy-dopamine (6-OHDA) in substantia nigra, pars compacta (8 μg of free base in 4 μl of saline kept ice cold with 0.2% ascorbic acid at the rate of 1 μl/min.). The neurotoxin was injected via a 10 μl Hamilton syringe under the following coordinates: A, 3.7 mm anterior to interaural line; V. 2.2 mm dorsal to interaural line; L, 2.2 mm from midline, according to Paxinos and Watson (The rat brain in stereotaxic coordinates. Academic Press, Sydney, Australia, 1982).
The needle was left in place 5 minutes further before being slowly withdrawn.
Following recovery from anaesthesia, rats were housed in a cage and given access to food and water ad libitum. After a 3 week recovery, rats were injected with apomorphine (0.5 mg/kg s.c.) and immediately put in automated rotometer bowls with a printing unit for 3 hours.
Only rats showing contralateral turning behavior totalling at least 250 complete turns within the control time, were used for the test with the compounds.
The test compounds were injected subcutaneously and rotational behavior scored each time for six hours.
All tested compounds were administered in a fixed volume (2 ml/kg body weight).

[3] = system: apomorphine-induced climbing; experiment: Antagonism to apomorphine-induced climbing in normal mice; format: in vivo; conditions: for ED50: Mus musculus, po
Protocol: The anti-dopaminergic activity in normal mice of the ergoline derivatives according to the invention was assessed by the antagonism to apomorphine-induced climbing (Protais, P. et al., Psychopharmacology, 50, 1, 1976).

[4] = known side effects, background; cited from earlier work
[5] = system: MPTP treated monkeys; experiment: MPTP-induced parkinsonism in monkey model; format: in vivo, Marmosets and cynomolgus
From the text: In nonhuman primates MPTP (1-methyl-4-phenyl-1,2,3,6-tetrahydropyridine) selectively destroys dopaminergic neurons in the substantia nigra pars compacta as has been shown in different primate species (1) (2) including the common marmoset and cynomolgus.
Repeated administration of MPTP produces varying degrees of akinesia or bradykinesia accompanied by rigidity of limbs, loss of vocalization and postural tremor.
Marmosets and cynomolgus were employed in these experiments. Each animal was administered a variable dosage regime showing them to have an individual susceptibility to MPTP according to Jenner et al. (3).
For the marmoset the cumulative dose was between 11-29 mg/kg i.p. over time courses of 4-10 days for three marmosets and 10-12 mg/kg i.p. for two cynomolgus in 4 days. All the monkeys were severely affected, completely akinetic and rigid with loss of vocalization, and blink reflex, with some postural tremor and were rendered unable to eat by themselves. After two or three days of wash-out to avoid the acute effect of MPTP administration, compound FCE 23884 was injected subcutaneously once a day starting from the dose 0.1 mg/kg up to 2 mg/kg.
Saline was administered in alternate fashion every three treatements to avoid the normal described improvement after the suspension of MPTP administration.

[6] = system: non-MPTP treated monkeys; experiment: Behavior in non-MPTP treated monkeys; format: in vivo; conditions: s.c.

Row | Compound | locomotor activity in akinetic reserpinized mice [1] | No. of contralateral turns (X) in turning rats ([2]; 1.0 mg/kg s.c.) | Turning rats/Treated rats ([2]; 1.0 mg/kg s.c.) | ED50 [3] [mg/kg] | other results
1 | CN1CCc2cccc3c2[C@H]1Cc1ccc(O)c(O)c1-3 [apomorphine, reference compound] | elicits locomotor activity |  |  |  | No. of counts in 85 min. ([1]; 0.05 mg/kg s.c.): 413
2 | CN1C[C@H](CN2CC(=O)NC(=O)C2)C[C@@H]2c3cccc4c3c(cn4C)C[C@H]21 [FCE 23952, 1,6-Dimethyl-8β-(3,5-dioxo-piperazin-1-yl-methyl)-ergoline] |  | 710.5 | 4/4 | 0.9 | 
3 | CN1C(=O)CN(C[C@@H]2C[C@@H]3c4cccc5[nH]cc(c45)C[C@H]3N(C)C2)CC1=O [FCE 23710, 6-Methyl-8β-(3,5-dioxo-4-methyl-piperazin-1-yl-methyl)-ergoline] |  | 1829.2 | 4/4 | 2.2 | 
4 | CC(C)C[C@H]1C(=O)N2CCC[C@H]2[C@]2(O)O[C@](NC(=O)[C@@H]3C=C4c5cccc6[nH]c(Br)c(c56)C[C@H]4N(C)C3)(C(C)C)C(=O)N12 [Bromocriptine, reference compound] |  | 1922.3 | 6/9 |  | Apomorphine antagonism (ED50) ([3]; p.o.): Inactive at 10 mg/kg; adverse effects [4]: emesis, hypotension, cardiac arrhythmia, digital vasospasm in cold weather, conjunctival irritation, diplopia, nasal stuffiness, constipation and syndrome of bilateral red, tender edema of the lower limbs and neuroendocrine alterations
5 | CN1C[C@H](CN2CC(=O)NC(=O)C2)C=C2c3cccc4[nH]cc(c34)C[C@H]21 [FCE 23884, 6-Methyl-9,10-didehydro-8β-(3,5-dioxo-piperazin-1-yl-methyl)-ergoline] | elicits locomotor activity as does apomorphine | 2146 | 5/5 | 0.5 | No. of contralateral turns (X) in turning rats ([2]; 0.1 mg/kg s.c.): 1317.5; Turning rats/Treated rats ([2]; 0.1 mg/kg s.c.): 9/10; No. of contralateral turns (X) in turning rats ([2]; 0.5 mg/kg s.c.): 2591.7; Turning rats/Treated rats ([2]; 0.5 mg/kg s.c.): 10/10; No. of counts in 85 min. ([1]; 1.0 mg/kg s.c.): 625; reversal of akinesia, time of onset ([5]; highest dose, 2 mg/kg s.c.): 5 min; reversal of akinesia, time of onset ([5]; lowest dose, 0.1 mg/kg s.c.): 30 min; effect in lesioned / MPTP treated monkeys ([5]; s.c.): dopaminergic effect in lesioned animals; also recorded: dopaminergic agent in the MPTP treated monkeys; Reversal of akinesia ([5]; s.c. once a day, 0.1 mg/kg up to 2 mg/kg): Reversal of akinesia in a dose-dependent fashion was observed; behavioral effect in non-MPTP treated monkeys [6]: sedative effect in a dose-dependent fashion; also recorded: antidopaminergic in non MPTP-treated monkeys
